Data on 6 compounds can be found in patent publication US11154480B2, “Shaping keratin fibres using a sugar” (The Procter & Gamble Company, priority 2013, dated 2021).

Data set [1] in a line: Benedict's Test for reducing sugars. The data set is classed as physicochemical. The text has this: As used herein, “reducing sugar” means any sugar that either has an aldehyde group or is capable of forming an aldehyde group in solution through isomerism, and that gives a positive result in the Benedict's test. An aldehyde group is —C(═O)H. The aldehyde group is important in view of reacting with and crosslinking the hair. The Benedict's test involves employment of the Benedict's solution. The Benedict's solution is available from Sigma Aldrich as ‘Benedict's Reagent’, which comprises sodium carbonate, copper sulphate pentahydrate and 2,5-difluorotoluene. In the Benedict's test, 1 mL of Benedict's solution is added to a 20 mL of 5% aqueous solution comprising a dissolved test compound. Benedict's solution contains blue copper(II) ions (Cu^2+). The solution is heated to 80° C. for 15 min and the resulting colour change is noted. The cupric ion of the Benedict's solution is reduced to cuprous ion by the aldehyde of the sugar. A positive Benedict's test result is confirmed with a change in colour as cupric ions (Cu^2+) are converted to cuprous ions i.e. reduced to copper(I) ions (Cu^+). These are precipitated as red copper(I) oxide which is insoluble in water. The test is also designed for longer heating time and higher temperature to note any colour change. The solution may range in colour (with increasing amounts of reducing sugar) from green, through yellow and orange, to red. […] The wavelength of light reflected by the solution will change with the colour. In at least one embodiment, a positive Benedict's test result is when the solution emits light not peaking with a wavelength in the range of 450 nm to 495 nm. In at least one embodiment, a positive Benedict's test result is when the solution emits light peaking with a wavelength in the range of 620 nm to 750 nm. This can be measured using a spectrophotometer.
In the art, the Benedict's reagent is used as a test for the presence of reducing sugars. This includes all monosaccharides and many disaccharides, including lactose and maltose. Even more generally, Benedict's test will detect the presence of aldehydes, and alpha-hydroxy-ketones, including those that occur in certain ketoses. Thus, although fructose, a ketose, is not strictly a reducing sugar, it is an alpha-hydroxy-ketone, it gives a positive test because it is converted to the aldoses glucose and mannose by the base in the reagent. The copper sulphate in Benedict's solution reacts with reducing sugars. One litre of Benedict's reagent can be prepared from 100 g of anhydrous sodium carbonate, 173 g of sodium citrate and 17.3 g of copper(II) sulfate pentahydrate. Benedict's Reagent provides a quantitative test for reducing sugars along with qualitative test. The colour of the obtained precipitate gives an idea about the quantity of sugar present in the solution. A greenish precipitate indicates about 0.5% concentration; yellow precipitate indicates 1% concentration; orange indicates 1.5% and red indicates 2% or higher concentration. A positive result in the Benedict's test can be recognised for a compound by a 5% (weight/weight) solution of compound in water as a red colouring. The aldehyde group of the sugar allows the sugar to act as a reducing agent, for example in the Benedict's test.

The conditions of data set [2]: as known in the art; converted to aldoses by the base in the reagent; cited from earlier work.
The mark [3] stands for this setting: 80° C., 15 min, 5% aqueous solution of test compound.

Regarding `O=C[C@@H](O)[C@H](O)[C@H](O)CO` [Arabinose], the “Assessment of sugars using the Benedict's Test” value (“Assessment of sugars” for short) was “Positive” in data set [1] (setting [3]) and “Positive” in data set [1] (100° C., 40 min).
With `O=C(CO)[C@@H](O)[C@H](O)[C@H](O)CO` [Fructose], the “Assessment of sugars” value was “Positive” in data set [1] (setting [3]) and “Positive” in data set [1] (100° C., 40 min). For the same compound, the “Benedict's test result” value in data set [2] was “positive”.
Turning to `CO[C@H]1OC(CO)[C@H](O)[C@@H](O)[C@@H]1O` (stereo partly shown) [Methyl glucoside], the “Assessment of sugars” value is listed as “Negative” in data set [1] (setting [3]) and “Positive” in data set [1] (100° C., 40 min).
For `O=C[C@H](O)[C@H](O)[C@H](O)CO` [Ribose], the “Assessment of sugars” value in data set [1] (setting [3]) is recorded as “Positive”; in data set [1] (100° C., 40 min), “Positive”.
Turning to `OC[C@H]1O[C@@](CO)(O[C@H]2O[C@H](CO)[C@@H](O)[C@H](O)[C@H]2O)[C@@H](O)[C@@H]1O` [Sucrose], the “Assessment of sugars” value in data set [1] (setting [3]) is listed as “Negative”; in data set [1] (100° C., 40 min), “Positive”.
`O=C[C@H](O)[C@@H](O)[C@H](O)CO` [Xylose]: the “Assessment of sugars” value in data set [1] (setting [3]) was “Positive”; in data set [1] (100° C., 40 min), “Positive”.
